Source: patent US20230338307A1, “PROPHYLACTIC AGENT, AMELIORATING AGENT, AND THERAPEUTIC AGENT FOR DRY EYE” (TSUBOTA LABORATORY, INC., priority 2020, published 2023)

What was measured:
dry eye model [1] = experiment: Fluorescein staining score, 0.2% benzalkonium chloride dry eye model, Comparative Study 2 (Example 5); assay type: in vivo, mice; conditions: two days after start, compared with control; 0.03% apocynin, 0.5% (w/v) hyaluronic acid or 3% diquafosol sodium twice a day; FIG. 11A
Text: After acclimating male C57BL6 mice (7 weeks old) to the experimental environment, those with almost uniform weight values and no eye abnormalities were divided into the following groups (n=3 to 4). • 7 weeks old/normal (non-dry eye group) • 7 weeks old/dry eye model+control (solvent eye drop) group • 7 weeks old/dry eye model+0.003% (w/v) apocynin eye drop group • 7 weeks old/dry eye model+0.03% (w/v) apocynin eye drop group • 7 weeks old/dry eye model+3% diquafosol sodium eye drop group • 7 weeks old/dry eye model+0.5% (w/v) hyaluronic acid eye drop group A dry eye model was created by instilling 3 μL of the 0.2% benzalkonium chloride solution into each of both eyes twice a day for 8 days. Then, the control group received PBS alone, and the test group received 0.003% (w/v), 0.03% (w/v) apocynin and 0.5% (w/v) hyaluronic acid in PBS. The 3% diquafosol sodium eye drop was instilled into each of both eyes at 3 μL, twice a day for 9 days. In Example 5, 1, 2, 5, and 9 days after the start of instillation of the comparative test drug, 1 μL of 0.1% sodium fluorescein solution was instilled into each of both eyes. Fluorescein-stained images were observed under a blue filter using a slit lamp (Kowa Co., Ltd., SL-17), and the degree of corneal epithelial damage was scored.

dry eye model [2] = experiment: Fluorescein staining score, benzalkonium chloride dry eye model, Comparative Study 1 (Example 4); assay type: in vivo, mice; conditions: 3 days after start of instillation, compared to control; 0.1% (w/v) apocynin or 0.5% (w/v) hyaluronic acid twice a day; FIG. 9A
Method: After acclimating male C57BL6 mice (7 weeks old) to the experimental environment, those with almost uniform weight values and no eye abnormalities were divided into the following groups (n=4). • 7 weeks old/normal (non-dry eye group) • 7 weeks old/dry eye model+control (solvent eye drop) group • 7 weeks old/dry eye model+0.1% (w/v) apocynin eye drop group • 7 weeks old/dry eye model+0.5% (w/v) hyaluronic acid eye drop group A dry eye model was prepared by instilling the benzalkonium chloride solution at 3 μL each eye, twice a day for 8 days. After that, the control group received the 0.5% methylcellulose solution alone, and the test group received 0.1% (w/v) apocynin or 0.5% (w/v) hyaluronic acid suspended in the 0.5% methylcellulose solution twice a day for 15 days at 3 μL for each of both eyes. In Example 4, 1, 3, 6, 8, and 15 days after the start of instillation of the comparative test drug, 1 μL of the 0.1% fluorescein sodium solution was instilled into each of both eyes. Fluorescein-stained images were observed under a blue filter using a slit lamp (Kowa Co., Ltd., SL-17), and the degree of corneal epithelial damage was scored.

[3] = reported for dry eye treatment; cited from earlier work

Compound | fluorescein staining score (corneal epithelial damage) (dry eye model [1]) | fluorescein staining score (corneal damage) (dry eye model [2]) | side effect specific to ingredients [3]
hyaluronic acid [reference compound] | no effect was observed | no effect was observed | –
O=C(NC(Cc1cc(=O)[nH]c2ccccc12)C(=O)O)c1ccc(Cl)cc1 (centres unmarked) [rebamipide] | – | – | causes dysgeusia
O=c1ccn([C@@H]2O[C@H](COP(=O)(O)OP(=O)(O)OP(=O)(O)OP(=O)(O)OC[C@H]3O[C@@H](n4ccc(=O)[nH]c4=O)[C@H](O)[C@@H]3O)[C@@H](O)[C@H]2O)c(=O)[nH]1 [diquafosol sodium, reference compound] | no effect was observed | – | causes ocular discharge and eye pain
